From patent US6663865B1, “Tumor necrosis factor antagonists and their use in endometriosis” (Applied Research Systems ARS Holding N.V., priority 1999, dated 2003)

Key:
endometriosis = settings: cited from earlier work
[1] = Serum estradiol-17β determination by radioimmunoassay in rats with experimental endometriosis; type: in vivo, rat; settings: second observation time-point (9 days after last treatment)
Protocol: (§1) At the designated sacrifice time-points (2 and 9 days after the last treatment i.e. 36 and 43 days after surgical engraftment), the animals were anaesthetised; blood samples were collected from abdominal aorta, sera were separated and stored at −20° C. until analyzed for estradiol-17β level determination. Spleens were excised for measurement of the Natural Killer (NK) activity. The surface area of endometriosis-like foci were measured at each sacrifice time-point in order to normalize data, the percent variation versus the pre-treatment laparatomy value was calculated by the formula: [formula]
Estradiol-17β determination. Serum estradiol-17β concentrations were determined using a commercially available kit to quantify estradiol in serum with no extraction step (DPC, Los Angeles, Calif., USA). Briefly, ^125I-labeled estradiol competes with estradiol in the serum sample for antibody sites. After incubation, separation of bound from free was achieved by decanting. The tube was then counted in a gamma counter (LKB-Pharmacia Wallak), the counts being inversely related to the amount of estradiol present in the serum sample. The quantity of estradiol in the samples was determined by comparing the counts to a calibration curve. […] Samples from the same experimental session were analyzed in a single immunoassay.

endometriotic-like foci = test: Experimental model of endometriosis in the rat (size of engraftments); type: in vivo; settings: for Mean ± SEM Post-treatment values (engraftment surface area): s.c., soluble TNF-RI 10 mg/kg, Antide 2 mg/kg; for Mean ± SEM Pre-treatment values (engraftment surface area): baseline at pre-treatment laparatomy
Protocol: Experimental model of endometriosis in the rat. To explore the effects of the recombinant soluble TNF-RI in endometriosis, a previously described experimental model (Jones, 1987) was used with minor modifications. Under Inoketam/Rompun anaesthesia, an autologous fragment of endometrial tissue (1 cm in length) was resected from the right uterine horn and placed in PBS at 37° C. The uterine segment was opened by a longitudinal incision, and a 5×5 mm section was transplanted, without removing the myometrium, onto the inner surface of the abdominal wall using non-absorbable silk suture at four comers.
Exploration of the study drugs effects in the experimental model of endometriosis. […] One further group of rats, not undergoing any surgical procedure, was kept as a normal control group. Three weeks after the induction of endometriosis, the animals underwent a second laparatomy (pre-treatment laparatomy) to evaluate the size and viability of the ectopic endometrial tissue. The surface area (length×width) was measured using a calliper and recorded. The animals showing viable engraftments were assigned to the designated treatment groups as reported in Table I, so that at the end of the experiment, six animals/group for the first sacrifice time-point and five animals/group for the second sacrifice time-point were obtained. The treatments were started after a 1-week recovery period. The control groups received saline alone; another group received three subcutaneous injections of 2 mg/kg Antide every 3 days with a regimen previously shown to suppress ovarian and hypothalamic activity (Sharpe et al., 1990). A further group received 10 mg/kg recombinant soluble TNF-RI, divided into two daily doses over a 1-week period.
as §1
where X0 is the size at time of pre-treatment laparatomy and X is the size at the time of sacrifice. The mean value of percent variation in each group was then computed.

In the case of `C#C[C@]1(O)CC[C@H]2[C@@H]3CCC4=Cc5oncc5C[C@]4(C)[C@H]3CC[C@@]21C` [Danazol], the crude recurrence rates (endometriosis; after up to 4 years) is given as 40%-50%, the “patients suffering from pain with improved symptoms” value (endometriosis; endometriosis patients) is given as 66-100% and the “patients abandoning therapy because of weight gain and androgenic side effects” value (endometriosis; human, in vivo) is given as “up to 80%”.
With Antide the “serum estradiol-17β concentration compared to untreated controls” value [1] was “significant difference”, the “size reduction of the endometriotic-like foci compared to the original dimension” value (endometriotic-like foci; 2 days after last treatment (first sacrifice time-point)) was 94% and the “Mean ± SEM Post-treatment values (engraftment surface area)” value (endometriotic-like foci; 2 days after last treatment) was 0.08 ± 0.02 cm^2. The “size reduction of the endometriotic-like foci compared to the original dimension” value (endometriotic-like foci; 9 days after last treatment (second sacrifice time-point)) was 88%, the “Mean ± SEM Post-treatment values (engraftment surface area)” value (endometriotic-like foci; 9 days after last treatment) was 0.19 ± 0.09 cm^2 and the “Mean ± SEM Pre-treatment values (engraftment surface area)” value (endometriotic-like foci; group observed 2 days after last treatment) was 1.43 ± 0.34 cm^2. The “Mean ± SEM Pre-treatment values (engraftment surface area)” value (endometriotic-like foci; group observed 9 days after last treatment) was 1.41 ± 0.32 cm^2.
